According to patent US7408024B2, “Somatostatin antagonists” (The Administrators of the Tulane Educational Fund, priority 2001, dated 2008):
Where a SMILES comes first, the peptide text is derived from it. Bridges are numbered along the chain shown (N, C = ends). [ ]: non-standard residue; d: D form. Phe(4-Cl) = N[C@@H](Cc1ccc(Cl)cc1)C(=O)O; dNMeW = CN[C@H](Cc1c[nH]c2ccccc12)C(=O)O; 2Nal = N[C@@H](Cc1ccc2ccccc2c1)C(=O)O; 3Pal = N[C@@H](Cc1cccnc1)C(=O)O; NMeK = CN[C@@H](CCCCN)C(=O)O

Key:
[1] = test system: SRIF inhibition of GH release in rat anterior pituitary cells; type: cell-based
Description: Anterior pituitaries from adult male rats were collected and dispersed by a previously described trypsin/DNase method. (Murphy, W. A.; Taylor, J.; Moreau, J.-P. and Coy, D. […] Sigma) and nystatin (10,000 U mL^−1; Gibco). The cells were randomly plated at a density of approximately 200,000 cells/well (Costar cluster 24; Rochester Scientific Co., Rochester, N.Y.). The plated cells were maintained in the above Dulbecco's medium in a humidified atmosphere of 95% air/5% CO2 at 37° C. for 4-6 days. In preparation for a hormone challenge, the cells were washed with medium 199 (Gibco, 3×1 mL). […] Sigma Chemical Co.). […] After 3 h incubation in an air/carbon dioxide atmosphere (95/5%, 3 h at 37° C.), the medium was removed and stored at −20° C. until assayed for hormone content. Growth hormone in media was measured by a standard double antibody RIA using components generously supplied by Dr. A. F. Parlow at the National Hormone and Pituitary Program (NHHP) Torrance, Calif.

hsst3 = target: T1, hsst3 (Homo sapiens, UniProt P32745); assay: Radioligand binding, cloned human sst3 receptor (CHO-K1 membranes); settings: [125I]Tyr11-SRIF, CHO-K1 cell membranes; single values = one binding experiment; read-out: K1 ± SEM hsst3
T1 construct: each containing the entire coding region of the full-length receptors; expressed in transfected cells
Description: (§1) The genomic clones containing the human somatostatin receptors (hsstr1-5) (Yamada, Y., et al. al., Proc. Natl. Acad. Sci. USA. 1992, 89, 251-255; Yasuda, K., et al., J. Biol. Chem. 1992, 267, 20422-20428; Yamada, Y., et al., Mol. Pharmacol. 1992, 42, 2136-2142; Rohrer, L., et al., Proc. Natl. Acad. Sci. USA. 1993, 90, 4196-4200.), were kindly provided by Dr. Graeme I. Bell (University of Chicago). The hsstr1, hsstr2, hsstr3, hsstr4 and hsstr5 cDNAs were isolated as a 1.5-kb PstI-XmnI fragment, 1.7-kb BamHI-HindIII fragment, 2.0-kb NcoI-HindIII fragment, 1.4-kb NheI-NdeI fragment, and a 1.2-kb HindIII-XbaI fragment, respectively, each containing the entire coding region of the full-length receptors. These fragments were independently subdloned into the corresponding restriction endonuclease sites in the mammalian expression vector pCMV5, downstream from the human cytomegalovirus (CMV) promoter, to produce the expression plasmids pCMV5/hsstr1, pCMV5/hsstr2, pCMV5/hsstr3, pCMV5/hsstr4 and pCMV5/hsstr5. For transfection into CHO-K1 cells, a plasmid, pRSV-neo (American Type Culture Collection, Rockville, Md.), carrying the neomycin mammalian cell selectable marker was added.
(§2) Transfections were performed by the calcium phosphate method. CHO-K1 cells are maintained in α-minimum essential medium (α-MEM; Gibco) supplemented with 10% fetal calf serum and transfected with each of the expression plasmids using calcium phosphate precipitation. Clones that had inherited the expression plasmid were selected in α-MEM supplemented with 500 μg mL^−1 of geneticin (G418; Gibco). Independent CHO-K1 clones were picked by glass-ring cloning and expanded in culture in the selective media. Membranes were prepared from the isolated clones and hsstr expression was initially assessed for binding with [^125I]Tyr^11-SRIF and [^125]IMK-678 (for sstr2).
(§3) Cell membranes of the 5 receptor types were obtained from homogenates (Polytron setting 6, 15 sec) of the corresponding CHO-K1 cells, in ice-cold Tris-HCl (50 mM) and centrifuged (39000 g, 10 min×2), with an intermediate resuspension in fresh buffer. The final pellets are resuspended in Tris-HCl (10 mM) for assay. Aliquots of the membranes are incubated (30 min at 37° C.) with 0.05 nM [^125I]Tyr^11-SRIF (types 1,3,4,5) or [^125I]MK-678 (type 2) in 50 mM HEPES (pH 7.4) containing BSA (10 mg mL^−1); MgCl2 (5 mM), Trasylol (200 kIU mL^−1), bacitracin (0.02 mg mL^−1), and phenylmethanesulfonyl fluoride (0.02 mg mL^−1). The final assay volume is 0.3 mL and incubations are terminated by rapid filtration through GF/C filters pre-soaked in 0.3% poly(ethylenimine) using a Brandel rapid filtration module. Each tube and filter is then washed with aliquots of cold buffer (3×5 mL).
(§4) Specific binding is. defined as the total radioligand bound minus that bound in the presence of 1.0 μM SRIF.

hsst1 = target: T2, hsst1 (Homo sapiens, UniProt P30872); assay: Radioligand binding, cloned human sst1 receptor (CHO-K1 membranes); settings: [125I]Tyr11-SRIF, CHO-K1 cell membranes; single values = one binding experiment; read-out: K1 ± SEM hsst1
T2 construct: each containing the entire coding region of the full-length receptors; expressed in transfected cells
Description: as §1, §2, §3, §4

hsst5 = target: T3, hsst5 (Homo sapiens, UniProt P35346); assay: Radioligand binding, cloned human sst5 receptor (CHO-K1 membranes); settings: [125I]Tyr11-SRIF, CHO-K1 cell membranes; single values = one binding experiment; read-out: K1 ± SEM hsst5
T3 construct: each containing the entire coding region of the full-length receptors; expressed in transfected cells
Description: as §1, §2, §3, §4

hsst2 = target: T4, hsst2 (Homo sapiens, UniProt P30874); assay: Radioligand binding, cloned human sst2 receptor (CHO-K1 membranes); settings: [125I]MK-678, CHO-K1 cell membranes; single values = one binding experiment; read-out: K1 ± SEM hsst2
T4 construct: each containing the entire coding region of the full-length receptors; expressed in transfected cells
Description: as §1, §2, §3, §4

hsst4 = target: T5, hsst4 (Homo sapiens, UniProt P31391); assay: Radioligand binding, cloned human sst4 receptor (CHO-K1 membranes); settings: [125I]Tyr11-SRIF, CHO-K1 cell membranes; single values = one binding experiment; read-out: K1 ± SEM hsst4
T5 construct: each containing the entire coding region of the full-length receptors; expressed in transfected cells
Description: as §1, §2, §3, §4

T3 sequence (P35346 whole entry): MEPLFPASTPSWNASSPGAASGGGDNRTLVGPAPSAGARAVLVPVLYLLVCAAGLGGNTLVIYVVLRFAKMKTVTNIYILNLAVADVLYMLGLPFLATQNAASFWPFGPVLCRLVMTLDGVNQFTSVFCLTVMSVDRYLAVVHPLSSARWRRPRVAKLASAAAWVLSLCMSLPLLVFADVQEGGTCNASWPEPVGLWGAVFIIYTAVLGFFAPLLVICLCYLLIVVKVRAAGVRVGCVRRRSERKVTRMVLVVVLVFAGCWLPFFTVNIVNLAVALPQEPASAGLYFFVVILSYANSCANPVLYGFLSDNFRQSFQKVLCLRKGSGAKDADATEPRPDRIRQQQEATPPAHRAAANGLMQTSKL
T2 sequence (P30872 whole entry): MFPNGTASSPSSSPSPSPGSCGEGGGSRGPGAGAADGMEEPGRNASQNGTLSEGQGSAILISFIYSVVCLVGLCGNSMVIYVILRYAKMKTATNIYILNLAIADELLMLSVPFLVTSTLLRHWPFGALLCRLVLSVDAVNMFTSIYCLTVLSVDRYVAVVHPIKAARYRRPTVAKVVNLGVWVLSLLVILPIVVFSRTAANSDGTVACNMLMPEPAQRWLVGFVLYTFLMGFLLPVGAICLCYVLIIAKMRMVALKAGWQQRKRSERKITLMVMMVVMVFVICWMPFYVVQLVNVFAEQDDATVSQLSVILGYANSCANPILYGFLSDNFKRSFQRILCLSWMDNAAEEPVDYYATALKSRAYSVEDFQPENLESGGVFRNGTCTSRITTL
T4 sequence (P30874 whole entry): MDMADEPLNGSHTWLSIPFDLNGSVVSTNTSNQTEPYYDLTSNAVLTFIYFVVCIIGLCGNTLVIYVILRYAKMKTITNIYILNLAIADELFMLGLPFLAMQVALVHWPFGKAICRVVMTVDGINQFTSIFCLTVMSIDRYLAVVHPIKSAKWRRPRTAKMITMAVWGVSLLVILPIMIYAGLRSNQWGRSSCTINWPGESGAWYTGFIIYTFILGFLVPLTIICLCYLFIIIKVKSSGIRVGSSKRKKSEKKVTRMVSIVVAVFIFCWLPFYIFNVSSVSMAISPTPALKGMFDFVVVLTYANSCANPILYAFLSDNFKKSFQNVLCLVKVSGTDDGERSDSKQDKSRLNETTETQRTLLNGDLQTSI
T1 sequence (P32745 whole entry): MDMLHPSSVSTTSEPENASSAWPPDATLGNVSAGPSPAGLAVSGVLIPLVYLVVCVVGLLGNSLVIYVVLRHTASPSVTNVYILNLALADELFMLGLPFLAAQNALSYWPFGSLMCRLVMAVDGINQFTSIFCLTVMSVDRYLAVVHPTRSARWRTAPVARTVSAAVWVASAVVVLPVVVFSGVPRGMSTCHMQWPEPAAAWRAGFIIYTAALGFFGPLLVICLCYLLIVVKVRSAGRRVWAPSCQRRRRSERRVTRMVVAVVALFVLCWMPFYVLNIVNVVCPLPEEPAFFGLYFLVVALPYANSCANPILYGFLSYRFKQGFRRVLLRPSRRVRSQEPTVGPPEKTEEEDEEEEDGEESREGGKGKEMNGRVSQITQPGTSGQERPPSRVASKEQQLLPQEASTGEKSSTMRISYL
T5 sequence (P31391 whole entry): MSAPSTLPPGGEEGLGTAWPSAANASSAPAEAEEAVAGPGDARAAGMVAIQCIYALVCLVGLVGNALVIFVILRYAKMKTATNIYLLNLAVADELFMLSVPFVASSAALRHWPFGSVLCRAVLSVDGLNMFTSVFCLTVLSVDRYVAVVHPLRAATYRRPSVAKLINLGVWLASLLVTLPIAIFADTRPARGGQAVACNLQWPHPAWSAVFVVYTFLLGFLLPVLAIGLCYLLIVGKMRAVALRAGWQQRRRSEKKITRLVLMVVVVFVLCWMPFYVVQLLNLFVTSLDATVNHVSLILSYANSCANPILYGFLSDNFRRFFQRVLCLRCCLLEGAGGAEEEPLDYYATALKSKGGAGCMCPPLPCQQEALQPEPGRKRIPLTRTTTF

IC50 [1] [nM] | Ki (hsst3) [nM] | Ki (hsst1) [nM] | Ki (hsst5) [nM] | Ki (hsst2) [nM] | Ki (hsst4) [nM] | Compound
2.5 ± 0.2 | 140 ± 10.4 | 1000 | 112 ± 19 | 9.33 ± 0.62 | 1000 | C[C@@H](O)[C@@H]1NC(=O)[C@H](CCCCN)N(C)C(=O)[C@@H](Cc2c[nH]c3ccccc23)N(C)C(=O)[C@H](Cc2cccnc2)NC(=O)[C@H](NC(=O)[C@@H](N)Cc2ccc(Cl)cc2)CSSC[C@@H](C(=O)N[C@@H](Cc2ccc3ccccc3c2)C(N)=O)NC1=O [Peptide 11, Cpa-cyclo(DCys-3-Pal-NMeDTrp-NMeLys-Thr-Cys)-2-Nal-NH2] (H-[Phe(4-Cl)][dC][3Pal][dNMeW][NMeK]TC[2Nal]-NH2; disulfide 2-7)
7.8 ± 2.7 | 330 ± 126 | 1000 | 40.1 ± 18.8 | 36 ± 7.6 | 1000 | CN[C@@H](Cc1ccc(Cl)cc1)C(=O)N[C@@H]1CSSC[C@@H](C(=O)N[C@@H](Cc2ccc3ccccc3c2)C(N)=O)NC(=O)[C@H]([C@@H](C)O)NC(=O)[C@H](CCCCN)NC(=O)[C@@H](Cc2c[nH]c3ccccc23)NC(=O)[C@H](Cc2cccnc2)NC1=O [Peptide 1, NmeCpa-cyclo(DCys-3-Pal-DTrp-Lys-Thr-Cys)-2-Nal-NH2]
